The source of these data is article PMC6389625, “The Impact and Mechanism of a Novel Allosteric AMPA Receptor Modulator LCX001 on Protection Against Respiratory Depression in Rodents” (Frontiers in Pharmacology, 2019).

In one series the test system is male KM mice. Briefly: Acetic acid writhing test. The class given is in vivo, mouse. The settings on record: for inhibition of acetic acid-induced writhing: 10 min before 0.6% acetic acid. For orientation: An intraperitoneal irritant provokes the stretching counted in writhing tests.
In another series the test system is female KM mice. As to the kind of experiment: Hot-plate test. The class given is in vivo, mouse.
The subject of a further series is AMPA receptors. As to the kind of experiment: [3H]AMPA binding to brainstem membranes. Also noted: species or system rat. The settings on record: for specific [3H]AMPA binding: 200 nM [3H]AMPA. The procedure:
Adult male SD rats (220–250 g) were euthanized by decapitation. The brainstems were dissected and homogenized for 2 min in 15 volumes of ice-cold 50 mM Tris–HCl buffer (pH 7.4) at 4°C. The homogenates were centrifuged at 1,000 g for 10 min, and the supernatants were collected and centrifuged at 40,000 g for 20 min. The pellets were dispersed in 50 mM Tris-HCl pH 7.4 and centrifuged at 40,000 g for 20 min. The last procedures were repeated a third time with a total of four washes to eliminate endogenous glutamate from the tissue. The resulting pellets were suspended in eight volumes of 0.3 M sucrose, then stored at –70°C until use. […] The binding reaction was performed in disposable glass culture tubes at 25°C for 60 min. […] The pellets were washed with ice-cold Tris-HCl pH 7.4 three times and dried with a piece of tissue paper. […] The binding activity on the filters was detected using a LS6500 scintillation counter (Beckman, Shanghai, China). […] Data are presented as the mean ± standard error of the mean (SEM). In the acetic acid writhing and hot-plate tests, experiments were performed blind. Compounds were injected by one researcher and the behavior or data was recorded by another researcher. The significance of change in respiratory parameters was evaluated by repeated measures two-way ANOVA (dose × time) followed by Bonferroni post-hoc tests for comparisons between groups. In the analysis of the acetic acid writhing test, hot-plate test and [^3H]AMPA binding assay, statistical evaluation between the treated groups and control group was performed by one-way ANOVA followed by Dunnett’s test. For saturation binding with [^3H]AMPA, Kd and Bmax values of different groups were obtained from fits to saturation binding curves with the KaleidaGraph programme. For whole-cell patch-clamp recordings, dose-response curves were fitted to the Hill equation using Origin 9.0 software (Originlab, MA, United States) and statistical significance was determined by one-way ANOVA followed by Dunnett’s test. For live cell imaging, two-way ANOVA followed by Bonferroni post-hoc tests was used to compare the treated groups and vehicle group.

In series [1] the target is T1, recombinant homomeric GluA2(R)flop receptor (Rattus norvegicus, UniProt P19491, Q607R).
T1 construct: rat AMPA-GluA2(R)flop cDNA corresponding to the entire coding region; expressed in transfected cells
T1 sequence (P19491 22-883 Q607R): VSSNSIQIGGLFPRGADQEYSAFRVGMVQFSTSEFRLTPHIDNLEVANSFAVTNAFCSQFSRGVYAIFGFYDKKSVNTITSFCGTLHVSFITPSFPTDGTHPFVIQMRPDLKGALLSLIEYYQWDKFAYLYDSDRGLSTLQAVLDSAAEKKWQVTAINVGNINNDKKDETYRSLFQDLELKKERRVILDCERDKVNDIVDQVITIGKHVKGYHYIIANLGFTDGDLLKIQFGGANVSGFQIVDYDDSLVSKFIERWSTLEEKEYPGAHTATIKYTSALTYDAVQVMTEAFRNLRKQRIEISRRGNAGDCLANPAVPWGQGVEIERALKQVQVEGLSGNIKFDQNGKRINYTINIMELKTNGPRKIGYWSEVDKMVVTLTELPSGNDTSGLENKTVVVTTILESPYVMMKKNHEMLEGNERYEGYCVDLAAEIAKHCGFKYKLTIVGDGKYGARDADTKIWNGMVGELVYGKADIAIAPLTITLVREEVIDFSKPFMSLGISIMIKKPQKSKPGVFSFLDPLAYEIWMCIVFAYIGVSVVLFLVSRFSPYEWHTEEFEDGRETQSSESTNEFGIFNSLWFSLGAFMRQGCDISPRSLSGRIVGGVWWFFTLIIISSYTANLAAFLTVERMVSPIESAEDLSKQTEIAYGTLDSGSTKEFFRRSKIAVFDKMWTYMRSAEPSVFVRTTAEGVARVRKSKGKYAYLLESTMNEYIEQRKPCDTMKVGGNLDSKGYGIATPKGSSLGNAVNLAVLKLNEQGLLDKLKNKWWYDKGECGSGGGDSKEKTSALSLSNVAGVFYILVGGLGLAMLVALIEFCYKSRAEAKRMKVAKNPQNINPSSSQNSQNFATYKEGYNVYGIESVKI
As to the kind of experiment: Whole-cell patch-clamp recording of glutamate-evoked currents in HEK293 cells. The class given is cell-based. How it is done: A wild-type rat AMPA-GluA2(R)flop cDNA corresponding to the entire coding region was generated and cloned into the pcDNA^TM3.1(+) vector (Invitrogen, China, Catalog no. V790-20) by Sangon Biotech Co., Ltd. (Shanghai, China). […] For stable transfection, HEK293 cells (3 × 10^4 cells/well) were seeded in 24-well plates the day before transfection. The cells were grown to 70–90% confluency, and the transfection was performed by adding 1 μg of GluA2 expressing vector per well. Twenty-four hours after transfection, the normal medium was replaced with DMEM/F12 (Gibco, Shanghai, China) growth medium supplemented with 1.0 mg/ml G418 (Gibco, Shanghai, China) and cultured for 7 days. The surviving cells were pelleted and dispersed (100 cells/20 ml), and then seeded into 96-well plates in DMEM/F12 medium containing 500 μg/ml G418. Discrete colonies were picked after 15 days of selection. Western blotting and whole-cell patch-clamp recording were performed to test expression of the AMPA receptor GluA2 subunit and formation of an AMPA-GluA2 ion channel. G418 was kept at 500 μg/ml for the maintenance of stably transfected clones.
HEK293 cells that stably expressed AMPA-GluA2 receptors were seeded into the recording chamber 2 days before patch-clamp recordings, and the experiments were conducted in whole-cell configuration. Thin-walled borosilicate glass (Sutter Instrument, CA, United States) was pulled to make patch pipettes. […] The holding potential was set as -80 mV by an Axopatch-700B amplifier (Axon Instruments, CA, United States), and pClamp8 software (Axon Instruments, CA, United States) was used for data acquisition. Currents were recorded and digitized at 10 kHz. […] LCX001 and CX614 were dissolved in dimethyl sulfoxide (DMSO) before dilution with external bath solution (DMSO final concentration 0.5%). Dose-response curves were fitted to the Hill equation using Origin 9.0 software.
In general terms: The patch-clamp technique gives a direct electrical read-out from membranes.

The next series has as its system SEP-GluA1. As to the kind of experiment: Live cell imaging of SEP-GluA1 surface expression in primary medulla oblongata neurons. The class given is cell-based, rat. Conditions: 47 μM final, added at 2 min; P > 0.05.
In another series the target is T2, SEP-GluA2(R) (Rattus norvegicus, UniProt P19491, Q607R).
T2 construct: adenovirus by Hanbio biotechnology plasmid #24001; host or cells: primary medulla oblongata neurons of neonatal SD rats
T2 sequence (P19491 22-883 Q607R): as above
As to the kind of experiment: Live cell imaging of SEP-GluA2(R) surface expression in primary medulla oblongata neurons. The class given is cell-based. Conditions: 47 μM final, added at 2 min.

Series [2] deals with intracellular calcium concentration ([Ca^2+]i) of cultured medullary neurons. Briefly: Ca2+ imaging (Fluo-4 NW) in primary medulla oblongata neurons. The settings on record: 40 μM final at 7 min, after glutamate 18 μM and fentanyl or TH-030418 42 μM. The class given is cell-based, rat.
A further series has as its system rodents. Briefly: Observation of over-excitability after administration. The class given is in vivo. Conditions: up to 60 mg/kg.
In series [3] the test system is unanaesthetised adult male SD rats.
The test system of the next series is rat dentate gyrus. More on the design: method as in Street et al., 2008; Mueller and Street, 2012. The settings on record: ref Street et al., 2008, Mueller and Street, 2012; cited from earlier work.

`CN(C(=O)c1ccc2nonc2c1)[C@H]1CC[C@H](O)CC1` [LCX001, N-((1r,4r)-4-hydroxycyclohexyl)-N-methylbenzo[c][1,2,5]oxadiazole-5-carboxamid]: the “inhibition of acetic acid-induced writhing” value in the series with male KM mice (1.5 mg/kg i.v.) worked out at 30.76 ± 12.75%; in the series on male KM mice (3 mg/kg i.v.), 41.43 ± 11.32%; in the series on male KM mice (6 mg/kg i.v.) it was 85.35 ± 9.53%; in the series with male KM mice (12 mg/kg i.v.) it was 94.78 ± 2.74%. The “impact on the analgesic effect of morphine (writhing test)” value in the series with male KM mice (LCX001 12 mg/kg i.v. 10 min before morphine 2.5 mg/kg s.c., P > 0.05) is “no impact”. The “%MPE compared with vehicle” value with female KM mice (1.5 mg/kg i.v., 10 min after administration, P > 0.05) is recorded as “no effect”; with female KM mice (3 mg/kg i.v., 10 min after administration, P > 0.05) it was “no effect”. Also, the “%MPE” value was 30.18 ± 10.56% with female KM mice (6 mg/kg i.v., 10 min after administration) and 65.27 ± 12.22% in the series on female KM mice (12 mg/kg i.v., 10 min after administration). In addition, in the series on female KM mice (LCX001 12 mg/kg i.v. 10 min before morphine 10 mg/kg s.c., P > 0.05), the “impact on the analgesic effect of morphine (hot-plate test)” value was “no impact”. For the same compound, the “specific [3H]AMPA binding” value with AMPA receptors (LCX001 10^-4 M, control 1595 ± 30) was 2095 ± 87 cpm/mg protein; in the series on AMPA receptors (LCX001 10^-5 M, control 1595 ± 30), 1964 ± 27 cpm/mg protein; in the series on AMPA receptors (LCX001 10^-6 M, control 1595 ± 30) it was 1857 ± 20 cpm/mg protein; in the series on AMPA receptors (LCX001 10^-9–10^-7 M, control 1595 ± 30 cpm/mg protein), “unchanged”. The “Bmax of [3H]AMPA after pre-incubation with LCX001” value in the series on AMPA receptors (LCX001 10^-4 M, without LCX001 6.89 ± 0.11) is reported as 7.77 ± 0.17 pmol/mg of protein. Also, in series [1] (100 μM modulator), the “nH of glutamate concentration-response curve in the presence of modulator” value stood at 0.84. The “glutamate evoked peak amplitude” value came to 711 ± 20 pA in series [1] (3.5 mM glutamate, 100 μM modulator, control 432 ± 27 pA) and 1120 ± 60 pA in series [1] (10 mM glutamate, 100 μM modulator, control 752 ± 35 pA). The “current induced by compound alone” value in series [1] (in the absence of glutamate) was “no current”. Besides, the SEP-GluA1 fluorescence intensity result with SEP-GluA1 is on record as “no impact”. Also, at SEP-GluA2(R), the SEP-GluA2 fluorescence intensity result is “significant and fast increase”. For the same compound, the “effect on the increased level of [Ca^2+]i in response to fentanyl and TH-030418” value in series [2] is listed as “significantly blocked”. Moreover, the over-excitability after administration entry in the series on rodents is given as “no evidence of over-excitability”. The “effect on Nembutal-induced respiratory depression” value in series [3] (LCX001 10 mg/kg i.v. 5 min after Nembutal 80 mg/kg i.p., P < 0.05) is recorded as “ameliorated respiratory depression”. Moreover, the “effect on TH-030418-induced respiratory depression” value in [3] (LCX001 10 mg/kg i.v. 5 min after TH-030418 20 μg/kg i.v., P < 0.05) is given as “alleviated the reduction of respiratory parameters”. Besides, the “effect on fentanyl-induced respiratory depression (respiratory frequency, minute ventilation)” value in [3] (LCX001 10 mg/kg i.v. 5 min after fentanyl 120 μg/kg s.c., P < 0.05) was “effectively countered the inhibition of respiratory frequency and minute ventilation”. In addition, the “effect on propofol-induced respiratory depression” value in [3] (LCX001 10 mg/kg i.v. 10 min before propofol 30 mg/kg i.v., P < 0.05) was “reversed the acute reduction of respiratory frequency and minute ventilation”. Also, the “increase in the amplitude of synaptic currents” value in the series with rat dentate gyrus is 21%.
For the compound `CCCC(C)C1(CC)C(=O)NC(=O)NC1=O` (stereo not shown) [Nembutal, reference compound], the respiratory frequency in series [3] (male, SD, rat, in vivo) is recorded as 70.3 ± 2.7 % of control.
Regarding `Cc1o[nH]c(=O)c1CC(N)C(=O)O` (stereo not shown) [[^3H]AMPA, reference compound], the “Bmax of [3H]AMPA saturation binding” value with AMPA receptors (without LCX001, one-site model) is 6.89 ± 0.11 pmol/mg of protein. In addition, the Kd at AMPA receptors (without LCX001, one-site model, read-out: Kd of [3H]AMPA saturation binding) amounted to 0.171 ± 0.005 µM.
For the compound `CN1CC[C@]23c4c5ccc(O)c4O[C@H]2[C@@H](O)C=C[C@H]3[C@H]1C5` [morphine, reference compound], in the series with female KM mice (10 mg/kg s.c., 30 min after injection, 55°C), the “%MPE” value is “about 100%”.
For the compound `CC(C)c1cccc(C(C)C)c1O` [propofol, reference compound], in [3] (male, SD, rat, in vivo), the “duration of propofol-mediated respiratory depression” value was in the range of 15 to 25 min and the respiratory frequency was 53.6 ± 5.8 % of control.
